# Test results published in EP1200093B1, “USE OF 2-AMINO-4-(4-FLUORONAPHTH-1-YL)-6-ISOPROPYLPYRIMIDINE IN THE TREATMENT OF GI DISORDERS” (priority 1999, dated 2001).
# Several values for one entry are separate records, joined by “and”; a condition that tells them apart may be missing. Equal values may be shown once.
# Experiments:
# 5-HT4 [1] = biological target: T1, 5-HT4 (Homo sapiens, UniProt Q13639); details: human receptor, comparison data; cited from earlier work
# 5-HT2B [2] = biological target: T2, 5-HT2B (Homo sapiens, UniProt P41595); details: human receptor, comparison data; cited from earlier work
# T2 sequence (P41595 whole entry): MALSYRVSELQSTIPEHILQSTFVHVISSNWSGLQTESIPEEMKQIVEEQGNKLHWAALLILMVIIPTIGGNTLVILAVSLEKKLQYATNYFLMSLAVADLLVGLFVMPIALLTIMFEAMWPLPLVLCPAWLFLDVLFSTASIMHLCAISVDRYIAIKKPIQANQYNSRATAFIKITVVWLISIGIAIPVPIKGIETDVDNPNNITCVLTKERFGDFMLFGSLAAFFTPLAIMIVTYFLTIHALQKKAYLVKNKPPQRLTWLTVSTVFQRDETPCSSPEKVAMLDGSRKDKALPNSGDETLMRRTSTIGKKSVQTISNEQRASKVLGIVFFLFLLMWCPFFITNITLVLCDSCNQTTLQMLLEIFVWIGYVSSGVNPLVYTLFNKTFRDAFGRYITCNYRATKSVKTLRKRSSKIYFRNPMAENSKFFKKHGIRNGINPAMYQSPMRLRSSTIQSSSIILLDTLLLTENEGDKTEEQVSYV
# [3] = biological target: T3, 5-HT receptor in human colon longitudinal muscle (Homo sapiens, UniProt P41595); assay: cell-based; type: cell-based
# T3 construct: Longitudinal muscle strips (2mm wide by 20mm long) were then cut from the tissue between the taenia coli; from tissue; host or cells: human colon longitudinal muscle strips, electrically stimulated
# T3 sequence (P41595 whole entry): as above
# 5-HT4 [4] = biological target: T1, 5-HT4; details: * responses to 5-HT in human isolated tissues; cited from earlier work
# 5-HT2C = biological target: T4, 5-HT2C (Homo sapiens, UniProt P28335); details: * responses to 5-HT in human isolated tissues; cited from earlier work
# T4 sequence (P28335 33-458): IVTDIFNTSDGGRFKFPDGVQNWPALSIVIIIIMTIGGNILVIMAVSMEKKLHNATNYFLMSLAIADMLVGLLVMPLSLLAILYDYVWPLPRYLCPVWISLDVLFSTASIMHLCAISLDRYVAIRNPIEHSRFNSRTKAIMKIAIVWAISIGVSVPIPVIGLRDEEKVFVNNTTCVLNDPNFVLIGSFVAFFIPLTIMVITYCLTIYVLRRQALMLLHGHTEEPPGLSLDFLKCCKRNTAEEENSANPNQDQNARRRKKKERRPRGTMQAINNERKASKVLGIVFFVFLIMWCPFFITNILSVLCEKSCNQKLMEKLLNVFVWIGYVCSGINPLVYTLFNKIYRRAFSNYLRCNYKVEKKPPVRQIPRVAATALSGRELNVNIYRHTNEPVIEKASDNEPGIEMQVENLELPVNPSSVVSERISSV
# 5-HT2B [5] = biological target: T2, 5-HT2B; details: * responses to 5-HT in human isolated tissues; cited from earlier work
# [6] = tested on: 5-HT receptor in human colon longitudinal muscle; assay: cell-based; type: cell-based
# T1 sequence (Q13639 whole entry): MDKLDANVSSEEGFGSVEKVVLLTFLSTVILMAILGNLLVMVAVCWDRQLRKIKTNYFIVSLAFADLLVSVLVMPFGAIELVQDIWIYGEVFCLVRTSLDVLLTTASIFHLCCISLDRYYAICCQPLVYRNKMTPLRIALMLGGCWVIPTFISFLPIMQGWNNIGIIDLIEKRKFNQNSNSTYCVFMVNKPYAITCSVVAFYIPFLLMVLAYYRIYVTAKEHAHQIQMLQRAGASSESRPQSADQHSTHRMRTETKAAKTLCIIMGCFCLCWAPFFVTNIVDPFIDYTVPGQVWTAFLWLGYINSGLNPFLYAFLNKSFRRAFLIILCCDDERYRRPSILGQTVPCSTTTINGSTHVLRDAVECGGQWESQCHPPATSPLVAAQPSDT
Structure (SMILES),"mean pEC50, 5-HT4 (5-HT4 [1])","mean pEC50, 5-HT2B (5-HT2B [2])",EC50 [3] [nM],"mean pKB or pA2, 5-HT4 (5-HT4 [4])",other results
Cc1[nH]c2ccc(O)cc2c1CCN [2-Me-5-HT],6.0,6.7,100,–,–
COc1ccc2[nH]cc(CCN)c2c1 [5-MeOT],6.2,7.6,158,–,–
CC(N)Cc1c[nH]c2ccc(O)cc12 (stereo not drawn) [Alpha-Me-5-HT],6.2,8.4,3.16,–,–
O=C(c1ccc(F)cc1)C1CCN(CCn2c(=O)[nH]c3ccccc3c2=O)CC1 [Ketanserin],–,–,–,4.7*,–
CSc1ccc2c(c1)C(N1CCN(C)CC1)Cc1ccccc1S2 (stereo not shown) [Methiothepin],–,–,–,<6.0*,–
CC[C@@H](CO)NC(=O)[C@@H]1C=C2c3cccc4c3c(cn4C)C[C@H]2N(C)C1 [Methysergide],–,–,–,<5.0*,"mean pKB or pA2, 5-HT2C (5-HT2C): 8.9*"
"CC(C)c1cc(-c2ccc(F)c3ccccc23)nc(N)n1 [RS127445, 2-amino-4-(4-fluoronaphth-1-yl)-6-isopropylpyrimidine]",–,–,–,–,"Kb [3]: 0.316 nM and 0.355 nM; Schild analysis, slope of plot ([3]; antagonism of 5-HT, RS127445 0.3nM to 100nM): 0.93±0.17"
Cn1ccc2cc3c(cc21)CCN3C(=O)Nc1cccnc1 [SB 206553],–,–,–,–,"mean pKB or pA2, 5-HT2B (5-HT2B [5]): 9.0*; Affinity (pKB) at the 5-HT receptor in human colon longitudinal muscle ([3]; antagonism of 5-HT in electrically-stimulated strips, at least 3 donors (RS127445: n>4 donors)): 8.5±0.1"
Cc1cc2c(cc1Cl)N(C(=O)Nc1ccc(Oc3cccnc3C)nc1)CC2 [SB 242084],–,–,–,–,Kb [3]: 501 nM
CN1[C@@H]2CC[C@H]1C[C@@H](OC(=O)C(CO)c1ccccc1)C2 (stereo partly shown) [atropine],–,–,–,–,effect on electrically-induced contractile response [6]: inhibited
